From patent US10175256B2, “Compositions and methods utilizing lysophosphatidylcholine scaffolds” (National University Of Singapore, priority 2013, dated 2019)
Values joined by “and” are separate entries in the source; they are usually repeats but may differ in a detail not shown here. Equal values may be shown once.

Target: T1, mouse Mfsd2a (Mus musculus, UniProt Q9DA75)
T1 construct: expressed in transfected cells; host or cells: HEK293
T1 sequence (Q9DA75 1-534): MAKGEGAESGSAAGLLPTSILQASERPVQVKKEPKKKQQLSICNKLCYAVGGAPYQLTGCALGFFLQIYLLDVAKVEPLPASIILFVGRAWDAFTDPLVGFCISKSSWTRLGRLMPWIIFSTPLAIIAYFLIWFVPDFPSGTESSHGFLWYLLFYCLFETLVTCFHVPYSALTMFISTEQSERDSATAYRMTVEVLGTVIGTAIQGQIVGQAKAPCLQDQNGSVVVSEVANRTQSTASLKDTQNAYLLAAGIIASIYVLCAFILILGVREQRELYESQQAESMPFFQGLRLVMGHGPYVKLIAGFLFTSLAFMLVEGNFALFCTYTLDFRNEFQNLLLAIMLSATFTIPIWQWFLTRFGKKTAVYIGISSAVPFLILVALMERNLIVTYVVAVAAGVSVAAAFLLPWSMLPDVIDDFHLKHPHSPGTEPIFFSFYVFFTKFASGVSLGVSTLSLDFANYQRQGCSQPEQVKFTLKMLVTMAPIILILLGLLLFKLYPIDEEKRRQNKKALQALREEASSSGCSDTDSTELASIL
Assay: Cell-based free fatty acid transport/uptake in Mfsd2a expressing HEK293 cells (mass spectrometry, TLC; Table 1)
Conditions: Mfsd2a HEK293 cells, 100 uM fatty acid/BSA overnight
How it was run: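 HEK293 cells expressing mouse Mfsd2a, or mock controls, were incubated overnight with 100 μM BSA-complexed fatty acids. Lipids were extracted in hexane:isopropanol (3:2) and phospholipid species quantified by HPLC-MS/MS against spiked internal standards. For TLC, cells received 100 μM [^14C]-oleate overnight, and phospholipids and neutral lipids were resolved.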

Q: Which results are given for `CCCCCCCCCCCCCCCC(=O)O` [Palmitic acid]?
A: % DHA in PC + lysoPC: 0.03823% and 0.0379% and 0.03421%; % DHA in PE + lysoPE: 10.42% and 11.02% and 9.771%; % DHA in PI and lysoPI: 0.01451% and 0.01192% and 0.01113%; % DHA in PS: 0.1262% and 0.1099% and 0.1138%; LPI16:0 in total phospholipid: 0.004365 mol percent and 0.003505 mol percent and 0.0022 mol percent; LPI18:0 in total phospholipid: 0.02606 mol percent and 0.0265 mol percent and 0.02588 mol percent; LPI20:4 in total phospholipid: 0.001669 mol percent and 0.001542 mol percent and 0.001553 mol percent; LPI22:6 in total phospholipid: 0.007831 mol percent and 0.008132 mol percent and 0.006212 mol percent; Lyso PE16:0p in total phospholipid: 2.777 mol percent and 2.934 mol percent and 3.347 mol percent; Lyso PE18:0p in total phospholipid: 0.434 mol percent and 0.5456 mol percent and 0.7875 mol percent; Lyso PE20:0p in total phospholipid: 0.2604 mol percent and 0.1622 mol percent and 0.3221 mol percent; LysoPC16:0e in total phospholipid: 0.004306 mol percent and 0.004045 mol percent and 0.00338 mol percent; LysoPC16:0 in total phospholipid: 0.02231 mol percent and 0.02238 mol percent and 0.01839 mol percent; LysoPC16:1 in total phospholipid: 0.006002 mol percent and 0.005731 mol percent and 0.005746 mol percent; LysoPC18:0e in total phospholipid: 0.002349 mol percent and 0.002697 mol percent and 0.00142 mol percent; LysoPC18:0 in total phospholipid: 0.005806 mol percent and 0.006675 mol percent and 0.006016 mol percent; LysoPC18:1 in total phospholipid: 0.01311 mol percent and 0.01254 mol percent and 0.01251 mol percent; LysoPC18:2 in total phospholipid: 0.001631 mol percent and 0.001146 mol percent and 0.001487 mol percent; LysoPC20:4 in total phospholipid: 0.000587 mol percent and 0.000539 mol percent and 0.000608 mol percent; LysoPC22:6 in total phospholipid: 0.000652 mol percent and 0.000809 mol percent and 0.000879 mol percent; LysoPE16:1 in total phospholipid: 0.1736 mol percent and 0.1327 mol percent and 0.1253 mol percent; LysoPE18:0 in total phospholipid: 0.1042 mol percent and 0.08847 mol percent and 0.1611 mol percent; LysoPE18:1 in total phospholipid: 0.1215 mol percent and 0.07373 mol percent and 0.07159 mol percent; PC32:0e in total phospholipid: 1.809 mol percent and 1.851 mol percent and 1.702 mol percent; PC32:0 in total phospholipid: 2.456 mol percent and 2.444 mol percent and 2.298 mol percent; PC32:1e in total phospholipid: 2.403 mol percent and 2.512 mol percent and 2.3 mol percent; PC32:1 in total phospholipid: 9.104 mol percent and 9.244 mol percent and 8.731 mol percent; PC32:2 in total phospholipid: 1.488 mol percent and 1.519 mol percent and 1.412 mol percent; PC34:1e in total phospholipid: 4.813 mol percent and 4.891 mol percent and 4.611 mol percent; PC34:1 in total phospholipid: 18.56 mol percent and 18.94 mol percent and 17.94 mol percent; PC34:2e in total phospholipid: 1.486 mol percent and 1.537 mol percent and 1.423 mol percent; PC34:2 in total phospholipid: 6.06 mol percent and 6.22 mol percent and 5.829 mol percent; PC34:3e in total phospholipid: 0.2283 mol percent and 0.2319 mol percent and 0.2175 mol percent; PC34:3 in total phospholipid: 0.615 mol percent and 0.6295 mol percent and 0.5976 mol percent; PC36:1e in total phospholipid: 1.432 mol percent and 1.425 mol percent and 1.342 mol percent; PC36:1 in total phospholipid: 2.54 mol percent and 2.547 mol percent and 2.409 mol percent; PC36:2e in total phospholipid: 1.609 mol percent and 1.633 mol percent and 1.504 mol percent; PC36:2 in total phospholipid: 5.692 mol percent and 5.815 mol percent and 5.439 mol percent; PC36:3e in total phospholipid: 0.8012 mol percent and 0.8224 mol percent and 0.7603 mol percent; PC36:3 in total phospholipid: 1.149 mol percent and 1.165 mol percent and 1.071 mol percent; PC36:4e in total phospholipid: 0.4287 mol percent and 0.4448 mol percent and 0.4173 mol percent; PC36:4 in total phospholipid: 0.3268 mol percent and 0.3193 mol percent and 0.308 mol percent; PC36:5e in total phospholipid: 0.3253 mol percent and 0.3343 mol percent and 0.309 mol percent; PC36:5 in total phospholipid: 0.05232 mol percent and 0.05663 mol percent and 0.05164 mol percent; PC36:6 in total phospholipid: 0.05108 mol percent and 0.04821 mol percent and 0.04326 mol percent; PC38:1e in total phospholipid: 0.3517 mol percent and 0.3555 mol percent and 0.3378 mol percent; PC38:3e in total phospholipid: 0.4164 mol percent and 0.4068 mol percent and 0.3798 mol percent; PC38:3 in total phospholipid: 0.5146 mol percent and 0.5317 mol percent and 0.5066 mol percent; PC38:4e in total phospholipid: 0.4168 mol percent and 0.4143 mol percent and 0.3843 mol percent; PC38:4 in total phospholipid: 0.4407 mol percent and 0.4455 mol percent and 0.4228 mol percent; PC38:5e in total phospholipid: 0.3513 mol percent and 0.3625 mol percent and 0.3264 mol percent; PC38:5 in total phospholipid: 0.2268 mol percent and 0.2451 mol percent and 0.2273 mol percent; PC38:6 in total phospholipid: 0.1683 mol percent and 0.1727 mol percent and 0.1591 mol percent; PC38:7 in total phospholipid: 0.1176 mol percent and 0.1195 mol percent and 0.1136 mol percent; PC40:1e in total phospholipid: 0.1793 mol percent and 0.1879 mol percent and 0.168 mol percent; PC40:2e in total phospholipid: 0.1944 mol percent and 0.1992 mol percent and 0.1788 mol percent; PC40:3e in total phospholipid: 0.1397 mol percent and 0.1434 mol percent and 0.1332 mol percent; PC40:4e in total phospholipid: 0.1237 mol percent and 0.1272 mol percent and 0.1205 mol percent; PC40:5e in total phospholipid: 0.1172 mol percent and 0.1169 mol percent and 0.1115 mol percent; PC40:5 in total phospholipid: 0.08233 mol percent and 0.08765 mol percent and 0.07997 mol percent; PC40:6 in total phospholipid: 0.1131 mol percent and 0.1203 mol percent and 0.105 mol percent; PC40:7 in total phospholipid: 0.1694 mol percent and 0.1653 mol percent and 0.1619 mol percent; PE32:1 in total phospholipid: 0.4397 mol percent and 0.3146 mol percent and 0.3699 mol percent; PE32:2 in total phospholipid: 0.09258 mol percent and 0.118 mol percent and 0.1193 mol percent; PE34:1 in total phospholipid: 1.562 mol percent and 1.425 mol percent and 1.336 mol percent; PE34:2 in total phospholipid: 1.088 mol percent and 0.9634 mol percent and 1.014 mol percent; PE34p:1 in total phospholipid: 1.042 mol percent and 1.072 mol percent and 1.479 mol percent
